US7763605B2, “[1,4]benzodiazepines as vasopressin V2 receptor antagonists” (Janssen Pharmaceutica, N.V., priority 2004, dated 2010)
Where a name gives a salt, the structure may show the parent alone.

Assays:
human V-1 receptor (V1a) = target: T1, human V-1 receptor (V1a) (Homo sapiens, UniProt P37288); assay: In vitro recombinant vasopressin receptor binding assay (3H-arginine vasopressin displacement), V1a; details: 0.2 μM test compound, cloned human receptor membranes from HEK-293 cells; for inhibition at 0.2 µM: read-out: Binding V1a (% inhib @ 0.2 μM)
T1 construct: expressed in transfected cells; host or cells: HEK-293 (membranes)
T1 sequence (P37288 whole entry): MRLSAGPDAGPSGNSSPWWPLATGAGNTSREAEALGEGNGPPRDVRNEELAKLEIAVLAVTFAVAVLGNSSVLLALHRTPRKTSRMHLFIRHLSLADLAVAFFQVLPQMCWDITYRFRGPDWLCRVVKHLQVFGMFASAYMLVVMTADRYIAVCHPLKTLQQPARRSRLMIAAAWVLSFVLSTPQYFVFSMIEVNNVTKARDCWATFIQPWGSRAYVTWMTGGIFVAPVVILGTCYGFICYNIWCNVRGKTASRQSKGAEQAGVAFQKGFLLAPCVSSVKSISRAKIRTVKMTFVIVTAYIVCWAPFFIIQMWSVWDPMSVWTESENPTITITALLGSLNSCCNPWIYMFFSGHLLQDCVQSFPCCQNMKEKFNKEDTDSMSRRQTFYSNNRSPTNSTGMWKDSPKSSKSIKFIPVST
Experimental: (§1) Compounds were assessed for their ability to displace ^3H-arginine vasopressin from the human V-1 or V-2 receptor in HEK-293 cells. Assay buffer is 50 mM Tris-Cl, 5 mM MgCl2, 0.1% BSA (pH 7.5) containing 5 ug/ml of aprotinin, leupeptin, pepstatin, 50 ug/ml bacitracin, and 1 mM Pefabloc. ^3H-vasopressin is ^3H-arginine-8-vasopressin (68.5 Ci/mmol, final concentration in assay is 0.65-0.75 nM). Into wells of 96-well round bottom polypropylene plates were added buffer, test compound, membrane (containing cloned human V-1 or V-2 receptor), and ^3H-vasopressin. The reaction plates were allowed to sit at room temperature for one hour. The samples were filtered through Unifilter GF/C plates (presoaked in 0.3 polyethyleneimine). The plates were washed 5 times with cold physiological saline containing 0.05% Tween 20. After drying, the bottom of the filter plates were sealed and 0.025 ml of Microscint-20 was added to each filter. The top of the plate was sealed, and the plate was counted. Non-specific binding was determined by the addition of 1.25 uM arginine-8-vasopressin in those wells.

human V2 receptor [1] = target: T2, human V2 receptor (Homo sapiens, UniProt P30518); assay: In vitro recombinant vasopressin receptor binding assay (3H-arginine vasopressin displacement), V2; details: for IC50: cloned human receptor membranes from HEK-293 cells
T2 construct: expressed in transfected cells; host or cells: HEK-293
T2 sequence (P30518 whole entry): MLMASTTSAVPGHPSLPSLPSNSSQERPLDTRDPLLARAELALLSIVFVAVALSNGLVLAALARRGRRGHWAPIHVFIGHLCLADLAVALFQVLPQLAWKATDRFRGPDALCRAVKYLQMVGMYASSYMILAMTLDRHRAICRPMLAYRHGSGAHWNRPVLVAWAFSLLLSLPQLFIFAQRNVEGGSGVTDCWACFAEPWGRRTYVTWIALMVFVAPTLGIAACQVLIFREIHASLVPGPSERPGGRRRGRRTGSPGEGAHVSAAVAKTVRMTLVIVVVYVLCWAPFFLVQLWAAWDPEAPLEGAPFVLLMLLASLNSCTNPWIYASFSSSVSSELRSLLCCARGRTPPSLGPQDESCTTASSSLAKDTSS
Experimental: as §1

human V2 receptor [2] = target: T2, human V2 receptor; assay: Inhibition of AVP-induced cAMP accumulation in transfected HEK-293 cells expressing human V2 receptor; type: cell-based; details: AVP 1 nM, HEK-293 expressing human V2, read-out: Functional V2 (IC50; μM)
Experimental: HEK-293 cells were grown in DMEM media supplemented with 10% FBS and glutamine (Gibco BRL, Grand Island, N.Y.). Once transfected, the cells were passed biweekly by trypsinization and seeded into 96 well plates at 33,000 cells per well. HEK-293 were transfected with human V1a, V1b or V2 DNA using DMRIE-C reagent from Life Technologies, Inc., Grand Island, N.Y. Cells were tested for their responsiveness to vasopressin 48 h after transfection. Stable lines were generated by selecting cells grown in culture media containing geneticin (500 μg/mL, Life Technologies).
The accumulation of cAMP was measured in transfected HEK-293 expressing the human V2 receptor. The cells were cultured 4-7 d in 96-well plates. On the day of testing in this assay, cells were washed twice in assay media (DMEM/F12 containing 0.1% BSA). The cells were treated with the test compound for 5 min and then given AVP (1 nM) in assay media containing 1 mM isobutylmethylxanthine. After 5 min, 0.5 N HCl was added to disrupt the cells and solubilize cAMP. The cAMP content of 20 μL of the cell lysate in each well was measured using cAMP Flashplates (NEN Life Sciences). Data are expressed as pmol cAMP/well. While the assay is optimized to detect and quantitate antagonistic activity, agonistic activity would also be apparent at the higher concentrations of test compounds.
The data from the cAMP accumulation and the calcium mobilization assays are expressed as IC50 values as determined from dose response curves.

Row | Compound | inhibition at 0.2 µM (human V-1 receptor (V1a)) [%] | IC50 (human V2 receptor [1]) [µM] | IC50 (human V2 receptor [2]) [µM] | inhibition at 0.2 µM (human V2 receptor [1]; read-out: Binding V2 (% inhib @ 0.2 μM)) [%] | Binding V1a (% inhib @ 0.2 μM) (human V-1 receptor (V1a)) [%]
1 | O=C(Nc1ccc(C(=O)N2C[C@@H](CO)N(Cc3ccccc3)Cc3ccccc32)c(Cl)c1)c1ccccc1-c1ccccc1 [Cpd 1, (S)-Biphenyl-2-carboxylic acid [4-(4-benzyl-3-hydroxymethyl-2,3,4,5-tetrahydro-benzo[e][1,4]diazepine-1-carbonyl)-3-chloro-phenyl]-amide] | 1 | 0.5 |  |  | 
2 | CSC[C@@H]1CN(C(=O)c2ccc(NC(=O)c3ccccc3-c3ccccc3)cc2Cl)c2ccccc2CN1C [Cpd 2, (S)-Biphenyl-2-carboxylic acid [3-chloro-4-(4-methyl-3-methylsulfanylmethyl-2,3,4,5-tetrahydrobenzo[e][1,4]diazepine-1-carbonyl)-phenyl]-amide] | 0 | 0.24 | 0.28 |  | 
3 | CN1Cc2ccccc2N(C(=O)c2ccc(NC(=O)c3ccccc3-c3ccccc3)cc2Cl)C[C@@H]1CN1CCCC1 [Cpd 3, (S)-Biphenyl-2-carboxylic acid [3-chloro-4-(4-methyl-3-pyrrolidin-1-ylmethyl-2,3,4,5-tetrahydrobenzo[e][1,4]diazepine-1-carbonyl)-phenyl]-amide ditrifluoroacetate] | 0 | 0.34 | 0.71 |  | 
4 | CN1Cc2ccccc2N(C(=O)c2ccc(NC(=O)c3ccccc3-c3ccccc3)cc2Cl)C[C@H]1COC1CCCC1 [Cpd 4, (S)-Biphenyl-2-carboxylic acid [3-chloro-4-(3-cyclopentyloxymethyl-4-methyl-2,3,4,5-tetrahydrobenzo[e][1,4]diazepine-1-carbonyl)-phenyl]-amide trifluoroacetate] | 0 |  | > 10 | 22 | 
5 | CC(=O)OC[C@@H]1CN(C(=O)c2ccc(NC(=O)c3ccccc3-c3ccccc3)cc2Cl)c2ccccc2CN1C(C)=O [Cpd 9, (S)-Acetic acid 4-acetyl-1-{4-[(biphenyl-2-carbonyl)-amino]-2-chloro-benzoyl}-2,3,4,5-tetrahydro-1H-benzo[e][1,4]diazepin-3-ylmethyl ester] | 2 | 0.045 | 0.04 |  | 
6 | (S)-Biphenyl-2-carboxylic acid [3-chloro-4-(4-methyl-3-morpholino-4-ylmethyl-2,3,4,5-tetrahydrobenzo[e][1,4]diazepine-1-carbonyl)-phenyl]-amide ditrifluoroacetate [Cpd 5] |  |  |  |  | 0

Second part, led by results:

Row | inhibition at 0.2 µM (human V-1 receptor (V1a)) [%] | IC50 (human V2 receptor [1]) [µM] | IC50 (human V2 receptor [2]) [µM] | inhibition at 0.2 µM (human V2 receptor [1]; read-out: Binding V2 (% inhib @ 0.2 μM)) [%] | Compound | Binding V1a (% inhib @ 0.2 μM) (human V-1 receptor (V1a)) [%]
7 | 0 | 0.066 | 0.025 |  | COC[C@@H]1CN(C(=O)c2ccc(NC(=O)c3ccccc3-c3ccccc3)cc2Cl)c2ccccc2CN1C [Cpd 6, (S)-Biphenyl-2-carboxylic acid [3-chloro-4-(3-methoxymethyl-4-methyl-2,3,4,5-tetrahydrobenzo[e][1,4]diazepine-1-carbonyl)-phenyl]-amide trifluoroacetate] | 
8 | 4 | 0.05 | 0.02 |  | CS(=O)(=O)N1Cc2ccccc2N(C(=O)c2ccc(NC(=O)c3ccccc3-c3ccccc3)cc2Cl)C[C@H]1CO [Cpd 7, (S)-Biphenyl-2-carboxylic acid [3-chloro-4-(3-hydroxymethyl-4-methanesulfonyl-2,3,4,5-tetrahydrobenzo[e][1,4]diazepine-1-carbonyl)-phenyl]-amide] | 
9 | 0 | 0.4 | 1.08 |  | CS(=O)(=O)OC[C@@H]1CN(C(=O)c2ccc(NC(=O)c3ccccc3-c3ccccc3)cc2Cl)c2ccccc2CN1S(C)(=O)=O [Cpd 8, (S)-methanesulfonic acid 1 {4-[(biphenyl-2-carbonyl)-amino]-2chloro-benzoyl}-4-methanesulfonyl-2,3,4,5-tetrahydro-1H-benzo[e][1,4]diazepin-3-ylmethyl ester] | 
10 | 2 | 0.065 | 0.03 |  | CCCS(=O)(=O)N1Cc2ccccc2N(C(=O)c2ccc(NC(=O)c3ccccc3-c3ccccc3)cc2Cl)C[C@H]1CO [Cpd 10, (S)-Biphenyl-2-carboxylic acid {3-chloro-4-[3-hydroxymethyl-4-(propane-1-sulfonyl)-2,3,4,5-tetrahydrobenzo[e][1,4]diazepine-1-carbonyl]-phenyl}-amide] | 
11 | 0 | 0.23 | 0.773 |  | O=C(Nc1ccc(C(=O)N2C[C@@H](CO)N(S(=O)(=O)c3ccccc3)Cc3ccccc32)c(Cl)c1)c1ccccc1-c1ccccc1 [Cpd 11, (S)-Biphenyl-2-carboxylic acid [4-(4-benzenesulfonyl-3-hydroxymethyl-2,3,4,5-tetrahydrobenzo[e][1,4]diazepine-1-carbonyl)-3-chloro-phenyl]-amide] | 
12 | 6 | 0.028 | 0.02 |  | CC(=O)N1Cc2ccccc2N(C(=O)c2ccc(NC(=O)c3ccccc3-c3ccccc3)cc2Cl)C[C@H]1CO [Cpd 12, (S)-Biphenyl-2-carboxylic acid [4-(4-acetyl-3-hydroxymethyl-2,3,4,5-tetrahydro-benzo[e][1,4]diazepine-1-carbonyl)-3-chloro-phenyl]-amide] | 
